Measurements from US10329296B2, “Indole derivatives” (Richter Gedeon Nyrt., priority 2015, dated 2019).
Where a name gives a salt, the structure may show the parent alone.

Target: human MCH1 receptor (Homo sapiens, UniProt Q99705)
Experiment: MCHR1 antagonism functional assay, measuring cytoplasmic calcium concentration ([Ca2+]i);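 also: human MCH1 AequoScreen cells loaded with calcium-sensitive fluorescent dye, compounds preincubated one hour, then MCH given at its EC80, inhibition of ΔF/F rise relative to DMSO vehicle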
Method: Evaluation of MCHR1 Antagonism in Functional Assay
Cells: human MCH1 (SLC1) AequoScreen® Cell Line (Perkin Elmer ES-370-A, lot No: M4W-A2)
MCH was dissolved in MilliQ water (1 mM), aliquots were taken from the stock solution, and were kept at −20° C. One aliquot was used only once.
Assay buffer: HBSS+2 mM probenecid, pH=7.4
Measuring of Cytoplasmic Calcium Concentration ([Ca^2+]i):
On the day of measurement the culture medium was removed from the cells and a fluorescent Ca^2+-sensitive dye (FLIPR Calcium 5 kit, Molecular Devices R8186) was added to the cells at a 4× dilution compared to the recommended dilution by the manufacturer, in a volume of 100 μl/well, and cells were incubated at 37° C. for 10 min. […] The vehicle (DMSO, control treatment), or the buffer containing test compounds were added to the cells in a volume of 50 μl/well, and cells were incubated at 37° C. for further 60 min.
1 mM stock solution was made from the agonist in distilled water, this solution was distributed into aliquots, which were kept at −20° C. until use. One aliquot was used only once. Fluorescence was detected before addition of MCH for 20 s, and after addition of MCH for 40 s. MCH was applied at an EC80 concentration, the EC80-values were determined individually for every plate/experiment. For this whole MCH dose-response curves were determined on one part of the plate, 4 parameter sigmoidal curves were fitted to the experimental data by nonlinear regression, MCH EC80 values were derived from the fitted curve. The raw fluorescence data were converted into ΔF/F values (the maximum fluorescence value obtained after addition of MCH was normalized to the baseline fluorescence: ΔF/F=(Fmax−Fbaseline)/Fbaseline). […] IC50 values of the tested compounds were determined by fitting 4 parameter sigmoidal curves to inhibition % data. Data processing, including fitting curves by nonlinear regression, was done by SoftMaxPro software.

Compound | IC50 [nM]
O=c1cc(OCc2ccc(Cl)cn2)ccn1-c1ccc2c(c1)c(Cl)c1n2CCN(CCF)CC1 | 15.5
O=c1cc(OCc2ccc(F)cn2)ccn1-c1ccc2c(c1)cc1n2CCNCC1 [Example 1, 1-{1H,2H,3H,4H,5H-[1,4]diazepino[1,7-a]indol-9-yl}-4-[(5-fluoropyridin-2-yl)methoxy]-1,2-dihydropyridin-2-one hydrochloride salt] | 17.6
O=c1cc(OCc2ccccc2)ccn1-c1ccc2c(c1)cc1n2CCNCC1 [Example 3, 4-(benzyloxy)-1-{1H,2H,3H,4H,5H-[1,4]diazepino[1,7-a]indol-9-yl}-1,2-dihydropyridin-2-one maleic acid salt] | 17.7
O=c1cc(OCc2ccc(F)cc2)ccn1-c1ccc2c(c1)cc1n2CCNCC1 [Example 5, 1-{1H,2H,3H,4H,5H-[1,4]diazepino[1,7-a]indol-9-yl}-4-[(4-fluorophenyl)methoxy]-1,2-dihydropyridin-2-one hydrochloride salt] | 12
O=c1cc(OCc2ccc(Cl)cc2)ccn1-c1ccc2c(c1)cc1n2CCNCC1 [Example 6, 4-[(4-chlorophenyl)methoxy]-1-{1H,2H,3H,4H,5H-[1,4]diazepino[1,7-a]indol-9-yl}-1,2-dihydropyridin-2-one hydrochloride salt] | 11.9
CN1CCc2cc3cc(-n4ccc(OCc5ccc(F)cn5)cc4=O)ccc3n2CC1 [Example 9, 4-[(5-fluoropyridin-2-yl)methoxy]-1-{3-methyl-1H,2H,3H,4H,5H-[1,4]diazepino[1,7-a]indol-9-yl}-1,2-dihydropyridin-2-one maleic acid salt] | 14.9
CN1CCc2cc3cc(-n4ccc(OCc5ccccc5)cc4=O)ccc3n2CC1 [Example 10, 4-(benzyloxy)-1-{3-methyl-1H,2H,3H,4H,5H-[1,4]diazepino[1,7-a]indol-9-yl}-1,2-dihydropyridin-2-one hydrochloride salt] | 9.2
CN1CCc2cc3cc(-n4ccc(OCc5ccc(Cl)cn5)cc4=O)ccc3n2CC1 [Example 11, 4-[(5-chloropyridin-2-yl)methoxy]-1-{3-methyl-1H,2H,3H,4H,5H-[1,4]diazepino[1,7-a]indol-9-yl}-1,2-dihydropyridin-2-one] | 9.6
CN1CCc2cc3cc(-n4ccc(OCc5ccc(Cl)cc5)cc4=O)ccc3n2CC1 [Example 12, 4-[(4-chlorophenol)methoxy]-1-{3-methyl-1H,2H,3H,4H,5H-[1,4]diazepino[1,7-a]indol-9-yl}-1,2-dihydropyridin-2-one maleic acid salt] | 9
CC(C)N1CCc2cc3cc(-n4ccc(OCc5ccccc5)cc4=O)ccc3n2CC1 [Example 19, 4-(benzyloxy)-1-[3-(propan-2-yl)-1H,2H,3H,4H,5H-[1,4]diazepino[1,7-a]indol-9-yl]-1,2-dihydropyridin-2-one hydrochloride salt] | 8.2
CC(C)N1CCc2cc3cc(-n4ccc(OCc5ccc(Cl)cn5)cc4=O)ccc3n2CC1 [Example 20, 4-[(5-chloropyridin-2-yl)methoxy]-1-[3-(propan-2-yl)-1H,2H,3H,4H,5H-[1,4]diazepino[1,7-a]indol-9-yl]-1,2-dihydropyridin-2-one maleic acid salt] | 6.2
CC(C)N1CCc2cc3cc(-n4ccc(OCc5ccc(F)cc5)cc4=O)ccc3n2CC1 [Example 21, 4-[(4-fluorophenyl)methoxy]-1-[3-(propan-2-yl)-1H,2H,3H,4H,5H-[1,4]diazepino[1,7-a]indol-9-yl]-1,2-dihydropyridin-2-one] | 8
CC(C)N1CCc2cc3cc(-n4ccc(OCc5ccc(Cl)cc5)cc4=O)ccc3n2CC1 [Example 22, 4-[(4-chlorophenyl)methoxy]-1-[3-(propan-2-yl)-1H,2H,3H,4H,5H-[1,4]diazepino[1,7-a]indol-9-yl]-1,2-dihydropyridin-2-one maleic acid salt] | 7.2
CC(C)N1CCc2cc3cc(-n4ccc(OCc5ccccc5F)cc4=O)ccc3n2CC1 [Example 23, 4-[(2-fluorophenyl)methoxy]-1-[3-(propan-2-yl)-1H,2H,3H,4H,5H-[1,4]diazepino[1,7-a]indol-9-yl]-1,2-dihydropyridin-2-one hydrochloride salt] | 15.7
CC(C)N1CCc2c(Cl)c3cc(-n4ccc(OCc5ccc(Cl)cn5)cc4=O)ccc3n2CC1 [Example 24, 1-[11-chloro-3-(propan-2-yl)-1H,2H,3H,4H,5H-[1,4]diazepino[1,7-a]indol-9-yl]-4-[(5-chloropyridin-2-yl)methoxy]-1,2-dihydropyridin-2-one maleic acid salt] | 18.5
CC(C)N1CCc2c(Br)c3cc(-n4ccc(OCc5ccc(Cl)cn5)cc4=O)ccc3n2CC1 [Example 25, 1-[11-bromo-3-(propan-2-yl)-1H,2H,3H,4H,5H-[1,4]diazepino[1,7-a]indol-9-yl]-4-[(5-chloropyridin-2-yl)methoxy]-1,2-dihydropyridin-2-one maleic acid salt] | 30.7
CC(C)N1CCc2c(I)c3cc(-n4ccc(OCc5ccc(Cl)cn5)cc4=O)ccc3n2CC1 [Example 26, 4-[(5-chloropyridin-2-yl)methoxy]-1-[11-iodo-3-(propan-2-yl)-1H,2H,3H,4H,5H-[1,4]diazepino[1,7-a]indol-9-yl]-1,2-dihydropyridin-2-one maleic acid salt] | 38.8
O=c1cc(OCc2ccc(Cl)cn2)ccn1-c1ccc2c(c1)cc1n2CCN(CC2CC2)CC1 [Example 28, 4-[(5-chloropyridin-2-yl)methoxy]-1-[3-(cyclopropylmethyl)-1H,2H,3H,4H,5H-[1,4]diazepino[1,7-a]indol-9-yl]-1,2-dihydropyridin-2-ond maleic acid salt] | 6.2
O=c1cc(OCc2ccccc2)ccn1-c1ccc2c(c1)cc1n2CCN(C2CC2)CC1 [Example 29, 4-(benzyloxy)-1-{3-cyclopropyl-1H,2H,3H,4H,5H-[1,4]diazepino[1,7-a]indol-9-yl}-1,2-dihydropyridin-2-one maleic acid salt] | 12.9
O=c1cc(OCc2ccc(Cl)cn2)ccn1-c1ccc2c(c1)cc1n2CCN(C2CC2)CC1 [Example 30, 4-[(5-chloropyridin-2-yl)methoxy]-1-{3-cyclopropyl-1H,2H,3H,4H,5H-[1,4]diazepino[1,7-a]indol-9-yl}-1,2-dihydropyridin-2-one maleic acid salt] | 17.2

Next, values leading:

IC50 [nM] | Compound
10 | O=c1cc(OCc2ccc(Cl)cn2)ccn1-c1ccc2c(c1)cc1n2CCN(CCF)CC1
32.9 | COc1ccc(COc2ccn(-c3ccc4c(c3)cc3n4CCNCC3)c(=O)c2)cc1 [Example 2, 1-{1H,2H,3H,4H,5H-[1.4]diazepino[1,7-a]indol-9-yl}-4-[(4-methoxyphenyl)-methoxy]-1,2-dihydropyridin-2-one hydrochloride salt]
9.8 | O=c1cc(OCc2ccc(Cl)cn2)ccn1-c1ccc2c(c1)cc1n2CCNCC1 [Example 4, 4-[(5-chloropyridin-2-yl)methoxy]-1-{1H,2H,3H,4H,5H-[1,4]diazepino[1,7-a]indol-9-yl}-1,2-dihydropyridin-2-one dihydrochloride salt]
27.7 | O=c1cc(OCc2ccccc2F)ccn1-c1ccc2c(c1)cc1n2CCNCC1 [Example 7, 1-{1H,2H,3H,4H,5H-[1,4]diazepino[1,7-a]indol-9-yl}-4-[(2-fluorphenyl)methoxy]-1,2-dihydropyridin-2-one hydrochloride salt]
123 | O=c1cc(OCc2ccc(C(F)(F)F)cc2)ccn1-c1ccc2c(c1)cc1n2CCNCC1 [Example 8, 1-{1H,2H,3H,4H,5H-[1,4]diazepino[1,7-a]indol-9-il}-4-{[4-(trifluoromethyl)phenyl]methoxy}-1,2-dihydropyridin-2-one hydrochloride salt]
7.9 | CCN1CCc2cc3cc(-n4ccc(OCc5ccc(OC)cc5)cc4=O)ccc3n2CC1 [Example 14, 1-{3-ethyl-1H,2H,3H,4H,5H-[1,4]diazepino[1,7-a]indol-9-yl}-4-[(4-methoxyphenyl)methoxy]-1,2-dihydropyridin-2-one]
6.5 | CCN1CCc2cc3cc(-n4ccc(OCc5ccc(Cl)cn5)cc4=O)ccc3n2CC1 [Example 15, 4-[(5-chloropyridin-2-yl)methoxy]-1-{3-etil-1H,2H,3H,4H,5H-[1,4]diazepino[1,7-a]indol-9-yl}-1,2-dihydropyridin-2-one]
7.2 | CCN1CCc2cc3cc(-n4ccc(OCc5ccc(F)cc5)cc4=O)ccc3n2CC1 [Example 16, 1-{3-ethyl-1H,2H,3H,4H,5H-[1,4]diazepino[1,7-a]indol-9-yl}-4-[(4-fluorophenyl)methoxy]-1,2-dihydropyridin-2-one]
18.9 | CC(=O)N1CCc2cc3cc(-n4ccc(OCc5ccc(Cl)cn5)cc4=O)ccc3n2CC1 [Example 17, 1-{3-acetyl-1H,2H,3H,4H,5H-[1,4]diazepino[1,7-a]indol-9-yl}-4-[(5-chloropyridin-2-yl)methoxy]-1,2-dihydropyridin-2-one]
15.2 | CC(C)N1CCc2cc3cc(-n4ccc(OCc5ccc(F)cn5)cc4=O)ccc3n2CC1 [Example 18, 4-[(5-fluoropyridin-2-yl)methoxy]-1-[3-(propan-2-yl)-1H,2H,3H,4H,5H-[1,4]diazepino[1,7-a]indol-9-yl]-1,2-dihydropyridin-2-one maleic acid salt]
29.9 | CC(C)N1CCc2c(Cl)c3cc(-n4ccc(OCc5ccccc5)cc4=O)ccc3n2CC1 [Example 27, 4-(benzyloxy)-1-[11-chloro-3-(propan-2-yl)-1H,2H,3H,4H,5H-[1,4]diazepino[1,7-a]indol-9-yl]-1,2-dihydropyridin-2-one hydrochloride salt]
12.3 | O=c1cc(OCc2ccc(Cl)cn2)ccn1-c1ccc2c(c1)cc1n2CCN(C2CCC2)CC1 [Example 31, 4-[(5-chloropyridin-2-yl)methoxy]-1-(3-cyclobutyl-1H,2H,3H,4H,5H-[1,4]diazepino[1,7-a]indol-9-yl)-1,2-dihydropyridin-2-one maleic acid salt]
14.3 | Cc1c2n(c3ccc(-n4ccc(OCc5ccc(Cl)cn5)cc4=O)cc13)CCN(C(C)C)CC2 [Example 34, 4-[(5-chloropyridin-2-yl)methoxy]-1-[11-methyl-3-(propan-2-yl)-1H,2H,3H,4H,5H-[1,4]diazepino[1,7-a]indol-9-yl]-1,2-dihydropyridin-2-one maleic acid salt]
